Data as given in patent US20160237160A1, “ANTI-TWEAKR ANTIBODIES AND USES THEREOF” (BAYER PHARMA AKTIENGESELLSCHAFT, priority 2013, published 2016).

Legend:
[1] = system: SCaBER xenograft (bladder cancer), NMRI nude mice; assay: Xenograft anti-tumor efficacy; assay type: in vivo; conditions: final tumor weight, TPP-2090 10 mg/kg twice weekly for 4 weeks
[2] = system: BXF1228 patient-derived bladder cancer model; assay: Xenograft anti-tumor efficacy; assay type: in vivo, mice; conditions: final tumor weight, TPP-2090 10 mg/kg twice weekly for 4 weeks
[3] = system: Ku-19-19 xenograft (bladder cancer); assay: Xenograft anti-tumor efficacy; assay type: in vivo, mice; conditions: final tumor weight, TPP-2090 10 mg/kg twice weekly for 4 weeks
Experimental: (§1) After tumor growth to a size of approximately 40 mm^2 mice were randomized into control and treatment groups with a respective group size of n=8-10. Mice were treated with various doses of anti-TWEAKR antibodies diluted in PBS by intravenous injection (i.v.) into the tail vein with a twice per week schedule (q4dx3: applications twice per week, three applications in total; q4dx8: applications twice per week, eight applications in total). Combination therapy partners such as Regorafenib (10 mg/kg daily, per os) and the PI3K-inhibitor 1 (10 mg/kg, BID, 2d on, 5d off (applications twice daily on two consecutive days, followed by five days without treatment), i.v.) were diluted in their respective formulations whereas the standard of care therapies Irinotecan (5 mg/kg, 4d on, 3d off (applications once daily on four consecutive days followed by three days without treatment) i.v.) and Paclitaxel (16 mg/kg, q7dx4 (applications once per week, four applications in total), i.v.) were diluted in 0.9% NaCl. Animals injected with PBS served as the control (vehicle) group. The applied volume of the compounds was 5 ml/kg body weight per mouse.
(§2) Tumor growth was monitored 2-3 times per week by caliper measurement (length×width in mm) as well as body weight (in g). […]

[4] = system: BXF1352 patient-derived bladder cancer model; assay: Xenograft anti-tumor efficacy; assay type: in vivo, mice; conditions: final tumor weight, TPP-2090 10 mg/kg twice weekly for 4 weeks
Experimental: as §1, §2

[5] = system: LoVo xenograft (colorectal cancer); assay: Xenograft anti-tumor efficacy; assay type: in vivo, mice; conditions: tumor weight, TPP-2090 10 mg/kg twice weekly for 4 weeks
Experimental: as §1
(§3) Tumor growth was monitored 2-3 times per week by caliper measurement (length×width in mm) as well as body weight (in g). At the end of study tumors were dissected, weighted and used for the calculation of tumor-to-control (T/C) ratios (mean tumor weight of treated animals divided by mean tumor weight of control/vehicle animals). […] 2×10^6 tumor cells in 100% Matrigel were s.c. inoculated in female nude mice. After 7d established tumors with a size of about 40 mm^2 were treated with 0.3 mg/kg, 1 mg/kg and 3 mg/kg of antibodies (i.v., q4dx3: applications twice per week, three applications in total).
(§4) Animal studies were conducted as described in example 8 for further human colorectal cancer tumor cell lines Colo205 and LoVo and for further human colorectal cancer patient-derived models Co7553, Co5896, Co5676, Co5841, CXF 1103 and CXF 533. […] The formulation of regorafenib is described in example 8.

[6] = system: Co5896 patient-derived colorectal cancer model; assay: Xenograft anti-tumor efficacy; assay type: in vivo, mice; conditions: tumor weight, TPP-2090 10 mg/kg twice weekly for 4 weeks
Experimental: as §1, §3, §4

[7] = system: Colo205 xenograft (colorectal cancer); assay: Xenograft anti-tumor efficacy; assay type: in vivo, mice; conditions: tumor weight, TPP-2090 10 mg/kg twice weekly for 4 weeks
Experimental: as §1, §3, §4

HT-29 cells [8] = assay: Inhibition of proliferation (Cell Titer Glo); assay type: cell-based, human; conditions: 24h, 100 μg/ml antibody or **300 ng/ml TWEAK
Experimental: (§5) Therefore cells were plated in 96well plates in 750 assay medium (growth media from Table 21, plus 100 ng/ml IFN gamma for 786-O cells) at the following cell numbers: WiDr cells 3000 cells/well, 786-O cells 2500 cells/well. 24 h later cells were incubated with anti-TWEAKR antibodies (see Table 26), recombinant human TWEAK or isotype control IgG (not shown) at the indicated concentrations (antibodies from 0.03-300 μg/ml, TWEAK 100 or 300 ng/ml). At the time of antibody addition cell viability was determined in sister plates (time point zero): therefore 750/well CTG solution (Promega Cell Titer Glo solution (catalog # G755B and G756B) was added to the cells, incubated for 10 minutes and luminescence was read on a Victor V (Perkin Elmer). 96 h after incubation with the agents, cell viability was determined in the assay plates by addition of 100 μl/well CTG solution, 10 min incubation and reading of luminescence. Proliferation in control wells was calculated by subtracting time zero values from the luminescence values in the untreated control wells. % of cell proliferation was calculated in the compound treated wells as compared to the untreated control wells.
(§6) To evaluate, whether this strong anti-proliferative activity can also be observed in a broader cell panel, in addition LOVO, NCI-H1975, SW-480 (all 3000 cells/well), HT-29 (4000 cells/well), A253 and SK-OV3 (both 2500 cells/well) cells were incubated with 100 μg/ml anti-TWEAKR antibodies or TWEAK ligand for the time periods as indicated in Table 27. All cells were seeded in the growth media indicated in Table 21 and for all cells except for WiDr cells 100 ng/ml IFNgamma was added to the assay medium when seeding the cells. The percentage of growth inhibition for treated cells as compared to proliferation in untreated control cells was measured and calculated as described above. As shown in Table 27 the antibodies of the current invention are more efficacious as compared to other known antibodies in inhibiting proliferation of various cancer cell lines at 100 μg/ml. In most experiments the antibodies of the current invention also show equal or stronger efficacy as compared to 100-300 ng/ml TWEAK ligand. Thus, the antibodies described in this invention are unique in their activity to induce apoptosis and proliferation inhibition in a broad panel of cancer cell lines.

NCI-H1975 cells = assay: Inhibition of proliferation (Cell Titer Glo); assay type: cell-based, human; conditions: 72h, 100 μg/ml antibody or *100 ng/ml TWEAK
Experimental: as §5, §6

786-O cells [9] = assay: Inhibition of proliferation (Cell Titer Glo); assay type: cell-based, human; conditions: 96h, 100 μg/ml antibody or *100 ng/ml TWEAK
Experimental: as §5, §6

A253 cells = assay: Inhibition of proliferation (Cell Titer Glo); assay type: cell-based, human; conditions: 72h, 100 μg/ml antibody or **300 ng/ml TWEAK
Experimental: as §5, §6

SW480 cells = assay: Inhibition of proliferation (Cell Titer Glo); assay type: cell-based, human; conditions: 72h, 100 μg/ml antibody or *100 ng/ml TWEAK
Experimental: as §5, §6

Lovo cells = assay: Inhibition of proliferation (Cell Titer Glo); assay type: cell-based, human; conditions: 72h, 100 μg/ml antibody or *100 ng/ml TWEAK
Experimental: as §5, §6

SK-OV3 cells = assay: Inhibition of proliferation (Cell Titer Glo); assay type: cell-based, human; conditions: 96h, 100 μg/ml antibody
Experimental: as §5, §6

WiDr cells [10] = assay: FACS binding to cell surface; set-up: species or system human; conditions: 10 μg/ml
Experimental: (§7) To determine the binding characteristics of the anti-TWEAKR antibodies on mouse and human cancer cell lines, binding was tested by flow cytometry to a panel of cell lines. Adherent cells were washed twice with PBS without Ca and Mg (Biochrom #L1825: aqueous solution containing 8000 mg/l NaCl, 200 mg/l KCl, 1150 mg/l Na2HPO4, and 200 mg/l KH2PO4) and detached by enzyme-free PBS based cell dissociation buffer (Invitrogen). Cells were suspended at approximately 10^5 cells/well in FACS buffer (PBS without Ca/Mg, containing 3% FCS, Biochrom). Cells were centrifuged (250 g, 5 min, 4° C.) and supernatant discarded. Cells were resuspended in dilutions of the antibodies of interest (10 μg/ml in 80 μl if not indicated otherwise) in FACS buffer, and incubated on ice for 1 h. In the following cells were washed once with 1000 cold FACS buffer and 80 μl secondary antibody diluted at 1:150 (PE goat anti-human IgG, Dianova #109-115-098, or PE Goat Anti-Mouse IgG, Jackson Immuno Research #115-115-164) was added. After incubation for 1 h on ice cells were again washed with cold FACS buffer, resuspended in 1000 FACS buffer and analyzed by flow cytometry using a FACS-Array (BD Biosciences). Results are calculated as Geo Mean of fluorescence detected by the antibody of interest subtracted by background fluorescence as measured by detection with the secondary antibody alone. Values are scored according to the following system: Geo Mean−Geo Mean of secondary antibody alone >10: +, >100: ++, >1000: +++, 10000: ++++, close to category border in ( ).

HT-29 cells [11] = assay: FACS binding to cell surface; set-up: species or system human; conditions: HT29; 10 μg/ml
Experimental: as §7

A375 cells [12] = assay: FACS binding to cell surface; set-up: species or system human; conditions: 10 μg/ml
Experimental: as §7

786-O cells [13] = assay: FACS binding to cell surface; set-up: species or system human; conditions: 10 μg/ml
Experimental: as §7

SK-OV-3 cells = assay: FACS binding to cell surface; set-up: species or system human; conditions: SKOV-3; 10 μg/ml
Experimental: as §7

NCI-H322 cells = assay: FACS binding to cell surface; set-up: species or system human; conditions: 10 μg/ml
Experimental: as §7

[14] = molecular target: T1, TWEAKR protein (TPP-2305) (Homo sapiens, UniProt Q9NP84); assay: Biacore monovalent KD with TWEAKR protein; assay type: binding
T1 construct: TPP-2305; hTNFRSF12Aaa28-80; Human; 30R-AT080; 168; purchased Fitzgerald Inc 30R-AT080
Experimental: Binding affinities of anti-TWEAKR antibodies were determined by surface plasmon resonance analysis on a Biacore T100 instrument (GE Healthcare Biacore, Inc.). Antibodies were immobilized onto a CM5 sensor chip through an indirect capturing reagent, anti-human IgG(Fc). Reagents from the “Human Antibody Capture Kit” (BR-1008-39, GE Healthcare Biacore, Inc.) were used as described by the manufacturer. Anti-TWEAKR antibodies were injected at a concentration of 10 μg/ml at 10 μl/min for 10 sec.
Sensorgrams were generated after in-line reference cell correction followed by buffer sample subtraction. The dissociation equilibrium constant (KD) was calculated based on the ratio of association (kon) and dissociation rated (koff) constants, obtained by fitting sensorgrams with a first order 1:1 binding model.

A375 cells [15] = assay: IL-8 secretion ELISA; assay type: cell-based, human; conditions: 100 μg/ml, 24 h
Experimental: Therefore A375 cells were plated at 2500 cells/well in 96well plates in growth medium DMEM (Biochrom;# FG 0435, with stable Glutamin), 10% FCS. 24 h later cells were incubated with anti-TWEAKR antibodies, recombinant human TWEAK at various concentrations as indicated or corresponding isotype control IgG. 24 h after start of the incubation with the antibodies, cell supernatant or dilutions thereof were added to the Capture Elisa Plate of the human CXCL8/IL-8 ELISA Kit (R&D Systems DY208) and incubated over night at 4° C. by shaking 300 rpm. On the next day, samples were analyzed by using the human CXCL8/IL-8-ELISA Kit (R&D Systems DY208) according to the manufacturer's instructions. Optical density was measured at 450 nm (Tecan Spectra, Rainbow) together with background correction. To calculate absolute levels of IL-8 a standard curve using recombinant human IL-8 protein was applied according to the manufacturer's recommendations (R&D Systems).

WiDr cells [16] = assay: Inhibition of proliferation (Cell Titer Glo); assay type: cell-based, human; conditions: 96h, 100 μg/ml antibody, no IFN gamma
Experimental: All cells were seeded in the growth media indicated in Table 21 and for all cells except for WiDr cells 100 ng/ml IFNgamma was added to the assay medium when seeding the cells. […]

TWEAKR = TWEAKR (Homo sapiens, UniProt Q9NP84); conditions: published data; read-out: KD / binding affinity to TWEAKR (published); cited from earlier work

Nc1ccn([C@@H]2O[C@H](CO)[C@@H](O)C2(F)F)c(=O)n1 [Gemcitabine, gemcitabine, reference compound]
T/C [1]: 0.85
T/C [2]: 0.93
T/C [3]: 0.07

N.N.[Cl][Pt][Cl] [Oxaliplatin/Cisplatin, cisplatin, reference compound]
T/C [1]: 1.22
T/C [2]: 0.84
T/C [4]: 0.85

CNC(=O)c1cc(Oc2ccc(NC(=O)Nc3ccc(Cl)c(C(F)(F)F)c3)c(F)c2)ccn1 [Regorafenib]
Final T/C [5]: 0.63
Final T/C [6]: 0.67
Final T/C [7]: 0.42

PDL-192(TPP-1104): reference agonistic anti-TWEAKR antibody, human IgG1, variable domains from WO2009/020933; SEQ ID NO 127/128 [reference compound]
% Inhibition of proliferation (HT-29 cells [8]): 62%
% Inhibition of proliferation (NCI-H1975 cells): 46%
% Inhibition of proliferation (786-O cells [9]): 41%
% Inhibition of proliferation (A253 cells): 87%
% Inhibition of proliferation (SW480 cells): 27%
% Inhibition of proliferation (Lovo cells): 49%
% Inhibition of proliferation (SK-OV3 cells): 44%
GeoMean of Fluorescence minus GeoMean with the secondary antibody only (WiDr cells [10]): 3563
GeoMean of Fluorescence minus GeoMean with the secondary antibody only (HT-29 cells [11]): 2127
GeoMean of Fluorescence minus GeoMean with the secondary antibody only (A375 cells [12]): 865
GeoMean of Fluorescence minus GeoMean with the secondary antibody only (786-O cells [13]): 25283
GeoMean of Fluorescence minus GeoMean with the secondary antibody only (SK-OV-3 cells): 4053
GeoMean of Fluorescence minus GeoMean with the secondary antibody only (NCI-H322 cells): 330
ka ([14]; first order 1:1 binding model): 1e+07 M⁻¹ s⁻¹
kd ([14]; first order 1:1 binding model): 0.038 s⁻¹
Kd ([14]; monovalent KD): 3.7 nM
IL-8 release, % of the activation as compared to 300 ng/ml TWEAK ligand (A375 cells [15]): 66%
% Inhibition of proliferation (WiDr cells [16]): 12%
Kd (TWEAKR): 5.5 nM
